Measurements: patent publication US7276531B2, “G-lactam derivatives as prostaglandin agonists” (Applied Research Systems ARS Holding N.V., priority 2003, dated 2007)

What was measured:
h-EP2 = h-EP2 (Homo sapiens, UniProt P43116); test: Prostaglandin EP2 receptor binding assay (3H-PGE2 SPA); conditions: EP2 receptor membranes, 20 nM 3H-PGE2, pH 6.0
Protocol: Compounds of the invention were tested in an EP2 receptor binding assay of the following protocol. As referred to herein, the term an “EP2 receptor binding assay” designates the following protocol.

h-EP4 = h-EP4 (Homo sapiens, UniProt P35408); test: EP4 receptor binding assay (3H-PGE2 SPA); conditions: EP4 receptor membranes, 20 nM 3H-PGE2, pH 6.0
Sequence of h-EP4 (P35408 whole entry): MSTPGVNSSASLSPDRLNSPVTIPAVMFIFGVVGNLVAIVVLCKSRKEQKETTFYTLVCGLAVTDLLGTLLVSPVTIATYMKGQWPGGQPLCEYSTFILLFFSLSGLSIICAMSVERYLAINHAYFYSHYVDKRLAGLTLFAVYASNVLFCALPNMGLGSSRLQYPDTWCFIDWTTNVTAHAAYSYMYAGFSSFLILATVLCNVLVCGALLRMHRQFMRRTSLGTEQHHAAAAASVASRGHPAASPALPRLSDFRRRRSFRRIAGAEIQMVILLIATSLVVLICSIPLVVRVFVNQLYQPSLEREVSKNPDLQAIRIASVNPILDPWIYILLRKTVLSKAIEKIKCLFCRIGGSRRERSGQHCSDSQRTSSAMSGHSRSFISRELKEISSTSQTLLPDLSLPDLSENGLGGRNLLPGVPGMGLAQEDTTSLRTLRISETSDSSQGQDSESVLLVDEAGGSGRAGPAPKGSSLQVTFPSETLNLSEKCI
Protocol: Compounds of the invention were tested in an EP4 receptor binding assay of the following protocol.

hEP2 receptors = biological target: T1, hEP2 receptors (Homo sapiens, UniProt P43116); test: EP2 cAMP assay, HEK293-EBNA cells transfected with pCEP4-hEP2 receptors; type: cell-based; conditions: total cAMP, 1 hour
T1 construct: expressed in transfected cells; host or cells: HEK293-EBNA
T1 sequence (P43116 whole entry): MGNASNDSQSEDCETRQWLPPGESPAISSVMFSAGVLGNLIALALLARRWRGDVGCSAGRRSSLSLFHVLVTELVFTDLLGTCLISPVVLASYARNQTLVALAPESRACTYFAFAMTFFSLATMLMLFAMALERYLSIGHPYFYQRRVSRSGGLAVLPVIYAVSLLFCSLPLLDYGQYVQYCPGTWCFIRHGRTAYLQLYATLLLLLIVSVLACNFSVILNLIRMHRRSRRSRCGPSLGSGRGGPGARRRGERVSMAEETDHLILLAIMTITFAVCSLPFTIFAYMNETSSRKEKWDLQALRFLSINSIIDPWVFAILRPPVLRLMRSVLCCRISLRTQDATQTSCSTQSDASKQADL
Protocol: Compounds of the invention were tested in a total cAMP assay as follows. […] After overnight incubation, the medium was removed from each well and replaced with 45 μl of assay medium consisted of phenol red free D-MEM/F-12, 0.1% BSA (GibcoBRL) and 0.1 mM 3-isobutyl-1-methyl-xanthine (Sigma). […] Total cAMP (intra- and extra-cellular) was measured by using a cAMP-screen ELISA System (Tropix, #CS1000).

hEP4 receptors = biological target: T2, hEP4 receptors (Homo sapiens, UniProt P35408); test: EP4 cAMP assay, HEK293-EBNA cells transfected with pCEP4-hEP4 receptors; type: cell-based; conditions: total cAMP, 1 hour
T2 construct: expressed in transfected cells; host or cells: HEK293-EBNA
T2 sequence (P35408 whole entry): as the sequence (P35408 whole entry) above
Protocol: Compounds of the invention were tested in a total cAMP assay as follows. HEK293-EBNA cells transfected with pCEP4-hEP4 receptors were seeded in 96 well opaque plate (Costar #3917) at 4×10^4 cells per well in 100 μl of culture medium (D-MEM/F12 supplemented with 10% FBS, […] L-glutamine, and 250 μg/ml of hygromycin; all from GibcoBRL) and incubated at 37° C. After overnight incubation, the medium was removed from each well and replaced with 45 μl of assay medium consisted of phenol red free D-MEM/F-12, 0.1% BSA (GibcoBRL) and 0.1 mM 3-isobutyl-1-methyl-xanthine (Sigma). After 15 minutes of incubation at 37° C., 16-16-dimethyl PGE-2 or compounds at desired concentrations in 20 μl of assay medium were added to cells and further incubated at 37° C. for 1 hour. Total cAMP (intra- and extra-cellular) was measured by using a cAMP-screen ELISA System (Tropix, #CS1000).

[1] = tested on: mature mouse ovulation induction model; test: In vivo ovulation assay (mature mouse ovulation induction model); conditions: Mus musculus, po, read-out: calculated ED50 (dose of drug which produces 50% of its effect), ovulation; p.o. administration route, mice
Protocol: Ovulation induction activity of compounds of the invention was tested in a mature mouse ovulation induction model.
Mature 10-week-old CD-mice were used. Reagents were prepared as follows: PMSG (pregnant mare serum gonadotropin) (Calbiochem, cat #367222) and hCG (Serono) are diluted in PBS. PGE2 (Cayman, Ann Arbor Mich.) was dissolved in ethanol and diluted with 0.154 M […] Buffer (pH 8.0) to final concentration of ethanol of less than 3 percent. A compound of the invention (based on solubility) was pre-dissolved in ethanol, DMSO or other reagents. The compound of the invention was then diluted with saline or other diluents such as PBS or NP3S (5% N-methyl-pyrrolidinone/30% PEG400/25% PEG200/20% Propylene Glycol in saline). PMSG stimulates ovarian follicular development. After PMSG stimulation, the mature follicules can be stimulated to rupture and release oocytes by an ovulation trigger, such as hCG or a compound of the invention.
The following test protocol is employed for the test animals (typically 5 animals per test group). • Day 1: Inject 5 IU PMSG in 200 μl PBS (i.p. 15:00 PM) • Day 2: No administration • Day 3: Injection of ovulation trigger hCG (i.p.) or hCG replacement (PGE2 or compound of the invention, s.c., i.v. or oral route), 15:00 PM • Day 4: Eighteen hours after injections of the ovulation triggers, animals were sacrificed by CO2 asphyxiation and abdominal cavities were opened using fine scissors and forceps. Uterus, oviducts and ovaries were collected and placed in pre-labeled dishes containing phosphate buffered saline (PBS). The collected tissues were transferred to the laboratory and intact oviduct carefully dissected out from uterus and ovary under the dissection microscope. The dissected oviducts were placed on the glass microscopic slide and covered with another slide. Two slides were taped on two edges. The numbers of ovulated ova in the oviducts were counted using upright microscope with 4× objective and recorded. […]

[2] = tested on: methacholine-induced bronchoconstriction; test: In vivo inhibition of guinea pig broncho-constriction (methacholine-induced); conditions: Cavia porcellus, IT (intra-tracheal) route, read-out: calculated effective dose (ED50), bronchoconstriction
Text: The activity of compounds of the invention in dilation of bronchiolar muscles, may be tested in different models. Guinea pig pulmonary-cholinergic in vivo model is generally used to test the materials for the treatments of asthma in human (Fleisch et al., 1985) Compounds of the invention can be tested in this methacholine-induced bronchomuscle constriction model as described below.
Groups of 3 Duncan Hartley derived male or female guinea pigs weighing 250±50 g are anesthetized with pentobarbital sodium (50 mg/kg i.p., plus an additional 15 mg/kg i.p. if required) and succinylcholine chloride (2 mg/animal i.p.) is subsequently administered to prevent spontaneous respiration. Body temperature is maintained at 37° to 38° C.
The trachea is cannulated and the guinea pig is ventilated with a Harvard rodent respirator in a closed system. Tracheal pressure is recorded through a side-arm of the cannula connected to a P23ID Statham transducer. […] Mean arterial pressure (BP) is monitored from a cannulated carotid artery, and heart rate (HR) is obtained from chest electrodes arranged for lead II. […]
Compounds of the invention are also tested via intra-tracheal (IT) route of administration. […] Tracheal pressure (ITP), blood pressure and heart rate are measured immediately as indicated in the material and methods sections. […]

LPS-induced TNFα release = test: In vivo inhibition of LPS-induced TNFα release in mice; conditions: LPS 0.3 mg/kg i.p.
Protocol: The anti-inflammatory activity of compounds of the invention may be assessed after a LPS challenge using the following protocol:
Eight weeks old C3H/H mice (IFFA-CREDO, L'arbresle, France) receive an oral treatment with compounds of the invention 6 different doses (0.001, 0.01, 0.1, 1 or 3 and 10 mg/kg in 0.5% CMC/0.25% tween-20). Six mice are used by group. Fifteen minutes later, endotoxins (O111:B4 Sigma, 0.3 mg/kg) are intraperitoneally injected. Heparinized whole blood is collected by decapitation. TNFα level is determined in plasma by ELISA (R & D Systems, Abdingdon, UK). Control animals receive 0.5% CMC/0.25% tween-20 (10 ml/kg) as vehicle. Data obtained from experiments are expressed as the mean±SEM and analysed using one-way analysis of variance (ANOVA) followed by Dunnett's t-test.

Sequence of h-EP2 (P43116 whole entry): as the sequence (P43116 whole entry) above

Row | Ki (h-EP2) | Ki (h-EP4) | EC50 (hEP2 receptors) | EC50 (hEP4 receptors) | SMILES | also measured
1 | 410 nM | 45 nM | 1050 nM | 2 nM | CC(C)=CCC/C(C)=C/C=C\[C@H]1CCC(=O)N1CCc1ccc(C(=O)O)cc1 [Example 11, 4-(2-{(2R)-2-[(1Z,3E)-4,8-dimethylnona-1,3,7-trienyl]-5-oxopyrrolidin-1-yl}ethyl)benzoic acid] | 
2 | 79 nM | 6 nM |  |  | CCC/C(C)=C/C=C\[C@H]1CCC(=O)N1CCc1ccc(C(=O)O)cc1 [Example 44, 4-(2-{(2R)-2-[(1Z,3E)-4-methylhepta-1,3-dienyl]-5-oxopyrrolidin-1-yl}ethyl)benzoic acid] | ED50 [1]: 1 mg/kg
3 | 36 nM | 164 nM |  |  | C/C(=C\C=C\[C@H]1CCC(=O)N1CCc1ccc(C(=O)O)cc1)C(C)C [Example 55, 4-(2-{(2R)-2-[(1E,3E)-4,5-dimethylhexa-1,3-dienyl]-5-oxopyrrolidin-1-yl}ethyl)benzoic acid] | 
4 | 1530 nM | 71 nM | 2600 nM | 2 nM | CC/C=C/C=C\[C@H]1CCC(=O)N1CCc1ccc(C(=O)O)cc1 [Example 7, 4-(2-{(2R)-2-[(1Z,3E)-hexa-1,3-dienyl]-5-oxopyrrolidin-1-yl}ethyl)benzoic acid] | 
5 | 100 nM | 69 nM |  |  | O=C(O)c1ccc(CCN2C(=O)CC[C@@H]2/C=C\C=C(/c2ccccc2)C(F)(F)F)cc1 [Example 58] | 
6 | 27 nM | 307 nM |  |  | O=C(O)c1ccc(CCN2C(=O)CC[C@@H]2/C=C\C=C2CCCCC2)cc1 [Example 56] | 
7 | 60 nM | 6 nM | 49 nM | 2 nM | CCCC/C(C)=C/C=C\[C@H]1CCC(=O)N1CCCc1ccc(C(=O)O)s1 (single isomer, unassigned) [Example 19] | 
8 | 277 nM | 165 nM |  |  | C/C(=C\C=C\[C@H]1CCC(=O)N1CCc1ccc(C(=O)O)cc1)C1CC1 [Example 63, 4-(2-{(2R)-2-[(1E,3E)-4-cyclopropylpenta-1,3-dienyl]-5-oxopyrrolidin-1-yl}ethyl)benzoic acid] | 
9 | 44 nM | 51 nM |  |  | CCCC/C=C/C=C\[C@H]1CCC(=O)N1CCCc1ccc(C(=O)O)s1 [Example 17, 5-(3-{(2R)-2-[(1Z,3E)-octa-1,3-dienyl]-5-oxopyrrolidin-1-yl}propyl)thiophene-2-carboxylic acid] | 
10 | 750 nM | 470 nM |  |  | CC(C)=CCC/C(C)=C/C=C/[C@H]1CCC(=O)N1CCc1ccc(C(=O)O)cc1 [Example 12, 4-(2-{(2R)-2-[(1E,3E)-4,8-dimethylnona-1,3,7-trienyl]-5-oxopyrrolidin-1-yl}ethyl)benzoic acid] | 
11 | 60 nM | 6 nM |  |  | CCCC/C(C)=C/C=C\[C@H]1CCC(=O)N1CCCc1ccc(C(=O)O)s1 (single isomer, unassigned) [Example 13] | 

Row | SMILES | Ki (h-EP2) | Ki (h-EP4) | EC50 (hEP2 receptors) | EC50 (hEP4 receptors) | also measured
12 | CCCC/C=C/C=C\[C@H]1CCC(=O)N1CCc1ccc(C(=O)O)cc1 [Example 1, 4-(2-{(2R)-2-[(1Z,3E)-octa-1,3-dienyl]-5-oxopyrrolidin-1-yl}ethyl)benzoic acid] | 88 nM | 25 nM | 197 nM | 20 nM | 
13 | CCCC/C=C(C)/C=C/[C@H]1CCC(=O)N1CCc1ccc(C(=O)O)cc1 [Example 22, 4-(2-{(2R)-2-[(1E,3E)-3-methylocta-1,3-dienyl]-5-oxopyrrolidin-1-yl}ethyl)benzoic acid] | 34 nM | 145 nM | 23 nM | 21 nM | ED50 [2]: 0.4 mg/kg; % of Inhibition of TNF Release Mean ± SEM (LPS-induced TNFα release; oral dose 0.001 mg/kg): 46 ± 2%; % of Inhibition of TNF Release Mean ± SEM (LPS-induced TNFα release; oral dose 0.01 mg/kg): 49 ± 4%; % of Inhibition of TNF Release Mean ± SEM (LPS-induced TNFα release; oral dose 0.1 mg/kg): 59 ± 2%; % of Inhibition of TNF Release Mean ± SEM (LPS-induced TNFα release; oral dose 1 mg/kg): 70 ± 4%; % of Inhibition of TNF Release Mean ± SEM (LPS-induced TNFα release; oral dose 10 mg/kg): 87 ± 2%
14 | C/C(=C\C=C/[C@H]1CCC(=O)N1CCc1ccc(C(=O)O)cc1)c1ccccc1 [Example 32, 4-(2-{(2R)-2-[(1Z,3E)-4-phenylpenta-1,3-dienyl]-5-oxopyrrolidin-1-yl}ethyl)benzoic acid] | 749 nM | 29 nM |  |  | 
15 | C/C(=C\C=C/[C@H]1CCC(=O)N1CCc1ccc(C(=O)O)cc1)CC1CCCC1 [Example 30, 4-(2-{(2)-2-[(1Z,3E)-5-cyclopentyl-4-methylpenta-1,3-dienyl]-5-oxopyrrolidin-1-yl}ethyl)benzoic acid] | 60 nM | 117 nM |  |  | 
